# Data published in the NIST ThermoML archive (doi:10.1016/j.jct.2013.08.005).
# Numbers after ± are expanded uncertainties.
# Conditions: 298.15 K; Liquid; Gas chromatography
row,Compound,vapor or sublimation pressure [kPa]
1,"C[C@@H]1CCC[C@H](C)N1 [2,6-lupetidine, cis-]",1.576 ± 0.33
2,CCCCNCCCC [dibutylamine],0.383 ± 0.12
3,C1CCNCC1 [piperidine],3.52 ± 0.75
4,CCCCCNCCCCC [dipentylamine],0.041 ± 0.009
5,CN[C@@H](C)Cc1ccccc1 [(S)-N-methyl-1-phenylpropan-2-amine],0.0375 ± 0.008
6,CCCCCCCCNCCCCCCCC [dioctylamine],5.6e-05 ± 1.2e-05
7,c1ccc(CC2CCNCC2)cc1 [4-benzylpiperidine],0.0015 ± 0.0003
8,CCCCCCCNCCCCCCC [N-heptyl-1-heptanamine],0.00054 ± 0.00011
